Measured values published in the kinase profiling compilation of Christmann-Franck et al. (2016).

What was measured:
Assay in all cases: radiometric filter-binding kinase assay
PAK6 (human) = PAK6 (human) (UniProt Q9NQU5)
HIPK3 (human) = HIPK3 (human) (UniProt Q9H422)
CHEK1 (human) = CHEK1 (human) (UniProt O14757)
[1] = tested on: AKT2 (human), P31751 [S474D]
IRAK4 (human) = IRAK4 (human) (UniProt Q9NWZ3)
IKBKE (human) = IKBKE (human) (UniProt Q14164)
RPS6KA3 KD1 KD2 (human) = RPS6KA3 KD1 KD2 (human) (UniProt P51812)
MAPK15 (human) = MAPK15 (human) (UniProt Q8TD08)
PIM3 (human) = PIM3 (human) (UniProt Q86V86)
CAMKK2 (human) = CAMKK2 (human) (UniProt Q96RR4)
NEK6 (human) = NEK6 (human) (UniProt Q9HC98)
SRPK1 (human) = SRPK1 (human) (UniProt Q96SB4)
PKN2 (human) = PKN2 (human) (UniProt Q16513)
PLK1 (human) = PLK1 (human) (UniProt P53350)
[2] = tested on: PAK2 (human), Q13177 [T402E]
MARK2 (human) = MARK2 (human) (UniProt Q7KZI7)
MARK1 (human) = MARK1 (human) (UniProt Q9P0L2)
MST4 (human) = MST4 (human) (UniProt Q9P289)
CLK2 (human) = CLK2 (human) (UniProt P49760)
DYRK1A (human) = DYRK1A (human) (UniProt Q13627)
NEK2 (human) = NEK2 (human) (UniProt P51955)
PAK4 (human) = PAK4 (human) (UniProt O96013)
RPS6KA5 KD1 KD2 (human) = RPS6KA5 KD1 KD2 (human) (UniProt O75582)
MAPK12 (human) = MAPK12 (human) (UniProt P53778)
MAPK3 (human) = MAPK3 (human) (UniProt P27361)
[3] = tested on: SGK1 (human), O00141 [S422D]
PAK7 (human) = PAK7 (human) (UniProt Q9P286)
PIM2 (human) = PIM2 (human) (UniProt Q9P1W9)
MAP3K7 TAB1 (human) = MAP3K7 TAB1 (human) (UniProt Q15750+O43318)
MAPK14 (human) = MAPK14 (human) (UniProt Q16539)
EPHA4 (human) = EPHA4 (human) (UniProt P54764)
IGF1R (human) = IGF1R (human) (UniProt P08069)
RIPK2 (human) = RIPK2 (human) (UniProt O43353)
MAPKAPK2 (human) = MAPKAPK2 (human) (UniProt P49137)
CSNK1D (human) = CSNK1D (human) (UniProt P48730)

AKT2 (human), P31751 [S474D], sequence (P31751 whole entry S474D, looked up): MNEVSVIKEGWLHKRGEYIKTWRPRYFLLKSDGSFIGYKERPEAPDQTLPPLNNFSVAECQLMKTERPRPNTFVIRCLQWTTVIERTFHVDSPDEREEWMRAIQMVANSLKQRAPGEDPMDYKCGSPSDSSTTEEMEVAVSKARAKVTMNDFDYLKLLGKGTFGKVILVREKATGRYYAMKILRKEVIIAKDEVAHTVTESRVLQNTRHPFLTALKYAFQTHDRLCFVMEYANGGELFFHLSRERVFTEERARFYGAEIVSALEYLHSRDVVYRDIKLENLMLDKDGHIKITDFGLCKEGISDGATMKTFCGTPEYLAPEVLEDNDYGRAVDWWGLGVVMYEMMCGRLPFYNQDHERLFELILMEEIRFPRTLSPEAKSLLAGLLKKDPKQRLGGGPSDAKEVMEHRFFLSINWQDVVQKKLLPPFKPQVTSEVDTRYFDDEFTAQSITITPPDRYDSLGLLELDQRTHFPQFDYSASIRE
RIPK2 (human), sequence (O43353 whole entry, looked up): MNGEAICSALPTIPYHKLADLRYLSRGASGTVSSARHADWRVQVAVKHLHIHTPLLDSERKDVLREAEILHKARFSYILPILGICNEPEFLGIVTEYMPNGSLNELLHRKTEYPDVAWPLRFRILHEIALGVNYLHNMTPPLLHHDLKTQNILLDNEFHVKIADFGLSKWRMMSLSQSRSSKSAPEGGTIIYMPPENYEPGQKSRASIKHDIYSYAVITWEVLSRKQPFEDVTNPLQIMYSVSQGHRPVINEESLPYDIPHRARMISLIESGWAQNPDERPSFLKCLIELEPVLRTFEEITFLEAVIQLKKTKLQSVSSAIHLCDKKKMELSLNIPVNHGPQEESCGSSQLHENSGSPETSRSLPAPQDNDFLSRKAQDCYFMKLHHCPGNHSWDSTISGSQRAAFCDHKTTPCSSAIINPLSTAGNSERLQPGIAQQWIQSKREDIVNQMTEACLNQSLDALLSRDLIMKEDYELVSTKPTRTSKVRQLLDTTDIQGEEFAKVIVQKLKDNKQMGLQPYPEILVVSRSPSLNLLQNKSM
RPS6KA5 KD1 KD2 (human), sequence (O75582 whole entry, looked up): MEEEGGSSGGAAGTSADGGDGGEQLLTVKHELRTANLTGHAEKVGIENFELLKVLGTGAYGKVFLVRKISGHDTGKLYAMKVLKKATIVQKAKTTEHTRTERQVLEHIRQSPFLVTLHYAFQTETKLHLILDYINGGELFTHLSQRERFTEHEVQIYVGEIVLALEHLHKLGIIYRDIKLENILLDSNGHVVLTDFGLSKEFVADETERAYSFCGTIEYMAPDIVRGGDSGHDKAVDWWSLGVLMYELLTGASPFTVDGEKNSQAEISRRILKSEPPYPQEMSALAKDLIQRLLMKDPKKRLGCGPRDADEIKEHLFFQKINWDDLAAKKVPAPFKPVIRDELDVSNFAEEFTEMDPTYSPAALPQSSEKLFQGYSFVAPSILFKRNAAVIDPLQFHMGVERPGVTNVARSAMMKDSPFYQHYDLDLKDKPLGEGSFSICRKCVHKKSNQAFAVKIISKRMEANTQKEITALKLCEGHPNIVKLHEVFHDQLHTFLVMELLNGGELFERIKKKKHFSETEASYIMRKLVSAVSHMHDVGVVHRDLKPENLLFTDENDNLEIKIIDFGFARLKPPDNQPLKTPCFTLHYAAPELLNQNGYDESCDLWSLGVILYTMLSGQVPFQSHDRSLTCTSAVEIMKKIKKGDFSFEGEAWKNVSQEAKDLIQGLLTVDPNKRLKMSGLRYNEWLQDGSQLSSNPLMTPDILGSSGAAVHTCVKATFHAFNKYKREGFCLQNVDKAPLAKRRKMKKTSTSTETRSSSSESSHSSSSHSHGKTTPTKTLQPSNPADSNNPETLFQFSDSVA
MAPKAPK2 (human), sequence (P49137 whole entry, looked up): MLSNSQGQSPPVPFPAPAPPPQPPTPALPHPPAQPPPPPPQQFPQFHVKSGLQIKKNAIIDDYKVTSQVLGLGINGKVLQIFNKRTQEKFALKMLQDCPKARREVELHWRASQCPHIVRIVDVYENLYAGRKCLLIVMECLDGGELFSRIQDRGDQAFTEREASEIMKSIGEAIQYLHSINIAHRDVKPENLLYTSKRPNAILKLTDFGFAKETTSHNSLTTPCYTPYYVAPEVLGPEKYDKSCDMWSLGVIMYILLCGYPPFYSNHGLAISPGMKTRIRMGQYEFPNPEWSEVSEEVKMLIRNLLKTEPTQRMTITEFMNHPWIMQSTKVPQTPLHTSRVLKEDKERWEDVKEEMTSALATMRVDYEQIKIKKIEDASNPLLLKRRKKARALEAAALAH
MARK1 (human), sequence (Q9P0L2 whole entry, looked up): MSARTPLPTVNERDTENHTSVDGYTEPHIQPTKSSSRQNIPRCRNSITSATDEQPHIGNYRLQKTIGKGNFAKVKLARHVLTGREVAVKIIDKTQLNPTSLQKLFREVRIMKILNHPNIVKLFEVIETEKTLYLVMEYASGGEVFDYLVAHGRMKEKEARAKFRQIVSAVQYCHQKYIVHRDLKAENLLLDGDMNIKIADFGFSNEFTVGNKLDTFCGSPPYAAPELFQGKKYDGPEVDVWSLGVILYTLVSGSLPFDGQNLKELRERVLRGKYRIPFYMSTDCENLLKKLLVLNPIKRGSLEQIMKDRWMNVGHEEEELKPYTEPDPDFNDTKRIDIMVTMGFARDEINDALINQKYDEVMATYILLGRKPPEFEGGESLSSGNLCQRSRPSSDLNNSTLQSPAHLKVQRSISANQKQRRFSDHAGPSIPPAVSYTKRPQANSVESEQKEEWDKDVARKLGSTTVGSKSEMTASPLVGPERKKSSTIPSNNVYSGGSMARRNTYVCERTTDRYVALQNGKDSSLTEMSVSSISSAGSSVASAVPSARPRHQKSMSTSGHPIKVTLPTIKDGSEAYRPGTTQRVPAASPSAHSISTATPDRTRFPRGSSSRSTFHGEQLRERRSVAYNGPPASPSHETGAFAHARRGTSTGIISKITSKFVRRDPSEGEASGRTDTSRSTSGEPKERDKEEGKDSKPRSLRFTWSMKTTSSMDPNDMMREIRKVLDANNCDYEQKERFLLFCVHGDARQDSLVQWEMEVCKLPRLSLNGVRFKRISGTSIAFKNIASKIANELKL
IKBKE (human), sequence (Q14164 whole entry, looked up): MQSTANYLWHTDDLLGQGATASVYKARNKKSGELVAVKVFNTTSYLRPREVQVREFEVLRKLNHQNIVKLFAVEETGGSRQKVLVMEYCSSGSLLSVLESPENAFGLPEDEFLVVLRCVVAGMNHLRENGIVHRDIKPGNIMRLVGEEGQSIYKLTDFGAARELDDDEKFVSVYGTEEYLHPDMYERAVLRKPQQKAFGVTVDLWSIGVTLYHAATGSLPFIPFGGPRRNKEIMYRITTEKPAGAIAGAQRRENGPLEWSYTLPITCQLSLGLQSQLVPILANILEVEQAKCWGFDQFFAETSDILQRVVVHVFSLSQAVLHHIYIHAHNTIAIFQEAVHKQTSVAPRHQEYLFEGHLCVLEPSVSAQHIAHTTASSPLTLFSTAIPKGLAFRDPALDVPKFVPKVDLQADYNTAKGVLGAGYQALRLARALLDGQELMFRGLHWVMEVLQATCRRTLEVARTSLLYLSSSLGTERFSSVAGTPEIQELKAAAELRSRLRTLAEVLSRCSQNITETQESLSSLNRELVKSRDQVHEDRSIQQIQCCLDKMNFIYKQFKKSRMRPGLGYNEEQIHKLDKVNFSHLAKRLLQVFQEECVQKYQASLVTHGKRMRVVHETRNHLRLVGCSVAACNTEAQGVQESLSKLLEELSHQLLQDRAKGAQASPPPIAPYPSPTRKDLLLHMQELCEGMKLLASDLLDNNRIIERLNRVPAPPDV
CLK2 (human), sequence (P49760 whole entry, looked up): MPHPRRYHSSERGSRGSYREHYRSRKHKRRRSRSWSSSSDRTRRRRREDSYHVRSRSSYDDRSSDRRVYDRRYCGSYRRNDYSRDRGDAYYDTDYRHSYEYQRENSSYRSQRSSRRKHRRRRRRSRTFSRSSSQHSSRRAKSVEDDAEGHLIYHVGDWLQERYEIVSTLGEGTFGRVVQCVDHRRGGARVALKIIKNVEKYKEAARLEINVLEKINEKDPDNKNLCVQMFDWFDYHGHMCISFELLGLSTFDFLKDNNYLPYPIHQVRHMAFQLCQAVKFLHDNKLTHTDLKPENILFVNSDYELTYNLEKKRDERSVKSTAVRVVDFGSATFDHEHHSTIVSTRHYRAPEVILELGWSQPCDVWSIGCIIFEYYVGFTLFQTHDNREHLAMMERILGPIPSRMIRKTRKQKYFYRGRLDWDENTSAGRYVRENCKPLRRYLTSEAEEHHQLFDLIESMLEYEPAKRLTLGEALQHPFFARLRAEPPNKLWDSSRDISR
NEK6 (human), sequence (Q9HC98 whole entry, looked up): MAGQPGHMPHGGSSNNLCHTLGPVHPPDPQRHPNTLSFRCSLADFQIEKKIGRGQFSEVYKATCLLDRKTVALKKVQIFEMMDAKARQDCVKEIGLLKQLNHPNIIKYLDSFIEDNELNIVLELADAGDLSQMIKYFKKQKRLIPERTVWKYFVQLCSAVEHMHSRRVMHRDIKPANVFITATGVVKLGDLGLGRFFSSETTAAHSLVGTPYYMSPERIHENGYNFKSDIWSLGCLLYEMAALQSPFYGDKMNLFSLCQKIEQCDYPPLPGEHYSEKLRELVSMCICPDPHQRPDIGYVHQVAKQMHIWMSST
MAPK12 (human), sequence (P53778 whole entry, looked up): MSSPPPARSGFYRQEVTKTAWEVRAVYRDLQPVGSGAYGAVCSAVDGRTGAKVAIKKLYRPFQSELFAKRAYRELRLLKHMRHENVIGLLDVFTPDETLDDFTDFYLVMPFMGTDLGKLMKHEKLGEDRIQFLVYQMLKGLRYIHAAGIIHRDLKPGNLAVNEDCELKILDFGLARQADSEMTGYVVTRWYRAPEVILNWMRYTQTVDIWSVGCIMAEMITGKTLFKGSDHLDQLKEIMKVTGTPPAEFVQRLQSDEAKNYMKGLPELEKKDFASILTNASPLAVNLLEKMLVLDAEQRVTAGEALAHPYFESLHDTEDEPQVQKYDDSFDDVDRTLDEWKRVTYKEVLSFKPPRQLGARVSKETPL

## CNC(=O)C1[C@H]2O[C@@](C)([C@@H]1N)n1c3ccccc3c3c4c(c5c6ccccc6n2c5c31)C(=O)NC4 (some centres undefined)
PAK6 (human); compound 0.01 µM
  residual activity: 29%
PAK6 (human); compound 0.1 µM
  residual activity: 2%
PAK6 (human); compound 1.0 µM
  residual activity: 1%
HIPK3 (human); compound 0.01 µM
  residual activity: 83%
HIPK3 (human); compound 0.1 µM
  residual activity: 43%
HIPK3 (human); compound 1.0 µM
  residual activity: 10%
CHEK1 (human); compound 0.01 µM
  residual activity: 11%
CHEK1 (human); compound 0.1 µM
  residual activity: 4%
CHEK1 (human); compound 1.0 µM
  residual activity: 3%
[1]; compound 0.01 µM
  residual activity: 109%
[1]; compound 0.1 µM
  residual activity: 51%
[1]; compound 1.0 µM
  residual activity: 8%
IRAK4 (human); compound 0.01 µM
  residual activity: 7%
IRAK4 (human); compound 0.1 µM
  residual activity: 7%
IRAK4 (human); compound 1.0 µM
  residual activity: 4%
IKBKE (human); compound 0.01 µM
  residual activity: 6%
IKBKE (human); compound 0.1 µM
  residual activity: 1%
IKBKE (human); compound 1.0 µM
  residual activity: 2%
RPS6KA3 KD1 KD2 (human); compound 0.01 µM
  residual activity: 16%
RPS6KA3 KD1 KD2 (human); compound 0.1 µM
  residual activity: 7%
RPS6KA3 KD1 KD2 (human); compound 1.0 µM
  residual activity: 6%
MAPK15 (human); compound 0.01 µM
  residual activity: 48%
MAPK15 (human); compound 0.1 µM
  residual activity: 8%
MAPK15 (human); compound 1.0 µM
  residual activity: 11%
PIM3 (human); compound 0.01 µM
  residual activity: 17%
PIM3 (human); compound 0.1 µM
  residual activity: 10%
PIM3 (human); compound 1.0 µM
  residual activity: 10%
CAMKK2 (human); compound 0.01 µM
  residual activity: 64%
CAMKK2 (human); compound 0.1 µM
  residual activity: 14%
CAMKK2 (human); compound 1.0 µM
  residual activity: 11%
NEK6 (human); compound 0.01 µM
  residual activity: 87%
NEK6 (human); compound 0.1 µM
  residual activity: 89%
NEK6 (human); compound 1.0 µM
  residual activity: 72%
SRPK1 (human); compound 0.01 µM
  residual activity: 89%
SRPK1 (human); compound 0.1 µM
  residual activity: 53%
SRPK1 (human); compound 1.0 µM
  residual activity: 11%
PKN2 (human); compound 0.01 µM
  residual activity: 21%
PKN2 (human); compound 0.1 µM
  residual activity: 8%
PKN2 (human); compound 1.0 µM
  residual activity: 6%
PLK1 (human); compound 0.01 µM
  residual activity: 68%
PLK1 (human); compound 0.1 µM
  residual activity: 38%
PLK1 (human); compound 1.0 µM
  residual activity: 22%
[2]; compound 0.01 µM
  residual activity: 71%
[2]; compound 0.1 µM
  residual activity: 19%
[2]; compound 1.0 µM
  residual activity: 4%
MARK2 (human); compound 0.01 µM
  residual activity: 11%
MARK2 (human); compound 0.1 µM
  residual activity: 5%
MARK2 (human); compound 1.0 µM
  residual activity: 4%
MARK1 (human); compound 0.01 µM
  residual activity: 11%
MARK1 (human); compound 0.1 µM
  residual activity: 5%
MARK1 (human); compound 1.0 µM
  residual activity: 5%
MST4 (human); compound 0.01 µM
  residual activity: 86%
MST4 (human); compound 0.1 µM
  residual activity: 26%
MST4 (human); compound 1.0 µM
  residual activity: 20%
CLK2 (human); compound 0.01 µM
  residual activity: 9%
CLK2 (human); compound 0.1 µM
  residual activity: -1%
CLK2 (human); compound 1.0 µM
  residual activity: -1%
DYRK1A (human); compound 0.01 µM
  residual activity: 29%
DYRK1A (human); compound 0.1 µM
  residual activity: 8%
DYRK1A (human); compound 1.0 µM
  residual activity: 3%
NEK2 (human); compound 0.01 µM
  residual activity: 105%
NEK2 (human); compound 0.1 µM
  residual activity: 105%
NEK2 (human); compound 1.0 µM
  residual activity: 66%
PAK4 (human); compound 0.01 µM
  residual activity: 25%
PAK4 (human); compound 0.1 µM
  residual activity: 7%
PAK4 (human); compound 1.0 µM
  residual activity: 7%
RPS6KA5 KD1 KD2 (human); compound 0.01 µM
  residual activity: 41%
RPS6KA5 KD1 KD2 (human); compound 0.1 µM
  residual activity: 10%
RPS6KA5 KD1 KD2 (human); compound 1.0 µM
  residual activity: 2%
MAPK12 (human); compound 0.01 µM
  residual activity: 76%
MAPK12 (human); compound 0.1 µM
  residual activity: 29%
MAPK12 (human); compound 1.0 µM
  residual activity: 6%
MAPK3 (human); compound 0.1 µM
  residual activity: 4%
MAPK3 (human); compound 1.0 µM
  residual activity: 2%
[3]; compound 0.01 µM
  residual activity: 79%
[3]; compound 0.1 µM
  residual activity: 32%
[3]; compound 1.0 µM
  residual activity: 10%
PAK7 (human); compound 0.01 µM
  residual activity: 17%
PAK7 (human); compound 0.1 µM
  residual activity: 4%
PAK7 (human); compound 1.0 µM
  residual activity: 2%
PIM2 (human); compound 0.01 µM
  residual activity: 93%
PIM2 (human); compound 0.1 µM
  residual activity: 30%
PIM2 (human); compound 1.0 µM
  residual activity: 4%
MAP3K7 TAB1 (human); compound 0.01 µM
  residual activity: 111%
MAP3K7 TAB1 (human); compound 0.1 µM
  residual activity: 2%
MAP3K7 TAB1 (human); compound 1.0 µM
  residual activity: 2%
MAPK14 (human); compound 0.01 µM
  residual activity: 106%
MAPK14 (human); compound 0.1 µM
  residual activity: 109%
MAPK14 (human); compound 1.0 µM
  residual activity: 105%
EPHA4 (human); compound 0.01 µM
  residual activity: 95%
EPHA4 (human); compound 0.1 µM
  residual activity: 61%
EPHA4 (human); compound 1.0 µM
  residual activity: 16%
IGF1R (human); compound 0.01 µM
  residual activity: 87%
IGF1R (human); compound 0.1 µM
  residual activity: 64%
IGF1R (human); compound 1.0 µM
  residual activity: 3%
RIPK2 (human); compound 0.01 µM
  residual activity: 80%
RIPK2 (human); compound 0.1 µM
  residual activity: 26%
RIPK2 (human); compound 1.0 µM
  residual activity: 9%
MAPKAPK2 (human); compound 0.01 µM
  residual activity: 19%
MAPKAPK2 (human); compound 0.1 µM
  residual activity: 0%
MAPKAPK2 (human); compound 1.0 µM
  residual activity: -1%
CSNK1D (human); compound 0.01 µM
  residual activity: 109%
CSNK1D (human); compound 0.1 µM
  residual activity: 107%
CSNK1D (human); compound 1.0 µM
  residual activity: 96%
